Patent US20220402948A1, “EGFR INHIBITOR, COMPOSITION AND PREPARATION METHOD THEREFOR” (BETTA PHARMACEUTICALS CO., LTD., priority 2019, published 2022)
Where two headings read alike, the source gives them in different places.

Assays:
EGFR WT = EGFR WT (Homo sapiens, UniProt P00533); experiment: EGFR WT kinase test (mobility variation analysis, Caliper EZ Reader); assay type: biochemical; settings: kinase enzymatic activity, Table 1
Summary of the method: (§1)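 Read-out is substrate-to-product conversion by mobility shift, stopped after incubation at room temperature with ATP and substrate, following a 10-minute room-temperature compound–enzyme pre-incubation. IC50 obtained by four-parameter variable-slope fitting of inhibition normalized between enzyme-free and uninhibited controls.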

[1] = target: Ba/F3 cells with EGFR Δ19del/T790M/C797S mutation gene stably overexpressed (Homo sapiens, UniProt P00533, T790M/C797S, cells depend on it, form not given); experiment: Ba/F3-Δ19del/T790M/C797S cell proliferation assay (CellTiter Glo, 72 hours); assay type: cell-based; settings: Table 2, read-out: EGFR Δ19del/T790M/C797S IC50
Summary of the method: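 Ba/F3 cells stably overexpressing wild-type EGFR or EGFR Δ19del/T790M/C797S were seeded at 2000 cells/well and incubated 72 h with compound. Viability was read by CellTiter-Glo luminescence, and IC50 came from a four-parameter logistic fit of signal against log concentration.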

IGF1R = IGF1R (Homo sapiens, UniProt P08069); experiment: IGF1R kinase test (mobility variation analysis, Caliper EZ Reader); assay type: biochemical; settings: kinase enzymatic activity, Table 1; read-out: EGFR IGF1R IC50
Summary of the method: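 Mobility-shift readout of substrate conversion, normalised to positive (no compound) and negative (no kinase) controls, gives % inhibition and IC50 by four-parameter fit. Compounds, 3-fold dilutions over 10 concentrations starting at 3000 nM, preincubated 10 min with kinase before ATP/substrate start; room temperature.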

EGFRΔ19del/T790M/C797S = EGFRΔ19del/T790M/C797S (Homo sapiens, UniProt P00533, T790M/C797S, form not given); experiment: EGFR Δ19del/T790M/C797S kinase test (mobility variation analysis, Caliper EZ Reader); assay type: biochemical; settings: kinase enzymatic activity, Table 1
Summary of the method: as §1

A431 = A431 cell proliferation assay (CellTiter Glo, 72 hours); assay type: cell-based; settings: cell proliferation, A431, 72 hours, Table 2, read-out: A431 IC50
Summary of the method: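 Luminescence (CellTiter-Glo) after 72 h treatment gives viability, fitted by nonlinear regression to yield IC50. Cells seeded at 2000 per well; nine 3-fold concentrations from 1000 nM, DMSO final 0.1% (0.5% for certain compounds).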

[2] = target: Ba/F3-EGFR wild-type cell line (Homo sapiens, UniProt P00533); experiment: Ba/F3-EGFR wild-type cell proliferation assay (CellTiter Glo, 72 hours); assay type: cell-based; settings: Table 2, read-out: EGFR WT IC50
Procedure: Cell line: Ba/F3 cells with EGFR Δ19del/T790M/C797S mutation gene stably overexpressed named Ba/F3-Δ119del/T90M/C797S, and A431 and Ba/F3-EGFR wild-type cell line.
a) Centrifuge the growth cells in logarithmic phase at 1000 rpm for 5 minutes, resuspend the cells in culture medium, and then count the cells;
b) Inoculate the cells into a 96-well cell culture plate with a density of 2000 cells/well;
b) Incubate cells in an incubator for another 72 hours.
a) Take out the 96-well cell culture plate and add 50 μl CTG reagent (CellTiter Glo kit, promega, Cat #G7573);
b) Shake the plate for 2 minutes and let cool at room temperature for 10 minutes;
c) Read luminous signal value with PerkinElmer reader,
Analysis of Experimental Data
The data were analyzed by GraphPad Prism 6.0 software to obtain the fitting curve of compound activity.
Y=Min+(Max−Min)/(1+10^((Log IC50−X)*slope));
X: Logarithm of compound concentration; Y: luminous signal.

Chain of Ba/F3-EGFR wild-type cell line (P00533 whole entry, stated change not applied): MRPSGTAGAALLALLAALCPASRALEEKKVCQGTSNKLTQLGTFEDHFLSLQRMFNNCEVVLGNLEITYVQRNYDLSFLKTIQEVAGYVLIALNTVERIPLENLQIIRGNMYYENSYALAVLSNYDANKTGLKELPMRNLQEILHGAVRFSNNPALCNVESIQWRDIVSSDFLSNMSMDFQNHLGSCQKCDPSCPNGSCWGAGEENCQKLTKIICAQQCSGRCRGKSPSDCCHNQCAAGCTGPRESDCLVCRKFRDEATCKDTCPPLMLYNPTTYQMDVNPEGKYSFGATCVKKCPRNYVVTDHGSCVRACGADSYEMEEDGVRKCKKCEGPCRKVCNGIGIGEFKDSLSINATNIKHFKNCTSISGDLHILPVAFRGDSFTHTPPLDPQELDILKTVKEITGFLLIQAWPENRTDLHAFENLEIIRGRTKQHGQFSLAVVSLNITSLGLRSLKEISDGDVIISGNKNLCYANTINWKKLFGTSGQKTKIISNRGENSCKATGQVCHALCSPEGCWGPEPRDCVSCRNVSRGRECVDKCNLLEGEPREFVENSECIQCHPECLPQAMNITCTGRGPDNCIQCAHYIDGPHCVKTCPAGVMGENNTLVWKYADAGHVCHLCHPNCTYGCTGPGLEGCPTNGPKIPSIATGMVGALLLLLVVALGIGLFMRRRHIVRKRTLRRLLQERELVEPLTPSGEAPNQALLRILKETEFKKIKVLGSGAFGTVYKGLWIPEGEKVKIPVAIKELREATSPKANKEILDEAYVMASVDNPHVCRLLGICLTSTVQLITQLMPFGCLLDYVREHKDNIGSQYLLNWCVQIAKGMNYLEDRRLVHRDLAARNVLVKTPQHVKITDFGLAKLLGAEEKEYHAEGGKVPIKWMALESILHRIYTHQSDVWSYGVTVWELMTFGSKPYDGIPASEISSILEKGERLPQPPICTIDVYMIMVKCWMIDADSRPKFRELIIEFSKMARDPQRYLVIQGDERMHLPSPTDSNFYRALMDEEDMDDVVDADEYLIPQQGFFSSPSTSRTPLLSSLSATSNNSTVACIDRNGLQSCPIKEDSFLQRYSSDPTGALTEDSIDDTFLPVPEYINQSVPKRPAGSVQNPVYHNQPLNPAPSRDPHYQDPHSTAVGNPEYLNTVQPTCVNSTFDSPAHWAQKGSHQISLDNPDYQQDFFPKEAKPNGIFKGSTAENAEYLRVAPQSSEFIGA
Chain of IGF1R (P08069 31-1367, species assumed): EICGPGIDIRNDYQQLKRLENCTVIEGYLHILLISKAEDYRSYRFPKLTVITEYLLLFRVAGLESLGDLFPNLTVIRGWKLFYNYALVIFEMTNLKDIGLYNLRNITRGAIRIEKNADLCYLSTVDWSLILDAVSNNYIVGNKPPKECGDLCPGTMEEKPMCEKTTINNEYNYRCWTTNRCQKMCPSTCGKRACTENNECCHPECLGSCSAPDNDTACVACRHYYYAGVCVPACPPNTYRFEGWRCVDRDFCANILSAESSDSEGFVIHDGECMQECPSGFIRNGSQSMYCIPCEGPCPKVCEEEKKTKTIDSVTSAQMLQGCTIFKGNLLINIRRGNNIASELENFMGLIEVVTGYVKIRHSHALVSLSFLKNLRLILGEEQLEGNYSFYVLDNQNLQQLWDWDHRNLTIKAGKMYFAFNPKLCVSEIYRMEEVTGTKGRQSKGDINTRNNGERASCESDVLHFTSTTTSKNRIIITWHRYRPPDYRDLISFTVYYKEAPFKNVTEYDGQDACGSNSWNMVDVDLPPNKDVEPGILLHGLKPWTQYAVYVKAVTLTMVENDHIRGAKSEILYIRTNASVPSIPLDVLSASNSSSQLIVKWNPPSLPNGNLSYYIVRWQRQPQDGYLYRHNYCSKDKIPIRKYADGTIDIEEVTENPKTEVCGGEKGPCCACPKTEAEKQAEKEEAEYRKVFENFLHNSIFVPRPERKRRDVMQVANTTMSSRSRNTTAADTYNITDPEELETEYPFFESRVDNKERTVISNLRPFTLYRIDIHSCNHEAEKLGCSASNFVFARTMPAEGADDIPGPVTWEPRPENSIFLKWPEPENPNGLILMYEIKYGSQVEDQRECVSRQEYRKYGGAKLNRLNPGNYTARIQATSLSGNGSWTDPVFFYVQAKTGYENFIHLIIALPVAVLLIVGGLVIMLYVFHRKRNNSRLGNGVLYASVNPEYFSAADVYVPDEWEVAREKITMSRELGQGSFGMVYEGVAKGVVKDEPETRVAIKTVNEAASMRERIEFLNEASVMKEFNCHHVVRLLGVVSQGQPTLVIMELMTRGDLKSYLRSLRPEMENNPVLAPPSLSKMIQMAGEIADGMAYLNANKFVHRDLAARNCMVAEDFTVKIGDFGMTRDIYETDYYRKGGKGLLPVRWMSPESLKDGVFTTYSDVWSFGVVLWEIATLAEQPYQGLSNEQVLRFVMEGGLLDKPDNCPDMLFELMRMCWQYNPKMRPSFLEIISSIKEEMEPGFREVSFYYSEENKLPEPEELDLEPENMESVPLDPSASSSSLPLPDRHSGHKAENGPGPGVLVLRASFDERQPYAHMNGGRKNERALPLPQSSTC
Chain of EGFR WT (P00533 25-1210): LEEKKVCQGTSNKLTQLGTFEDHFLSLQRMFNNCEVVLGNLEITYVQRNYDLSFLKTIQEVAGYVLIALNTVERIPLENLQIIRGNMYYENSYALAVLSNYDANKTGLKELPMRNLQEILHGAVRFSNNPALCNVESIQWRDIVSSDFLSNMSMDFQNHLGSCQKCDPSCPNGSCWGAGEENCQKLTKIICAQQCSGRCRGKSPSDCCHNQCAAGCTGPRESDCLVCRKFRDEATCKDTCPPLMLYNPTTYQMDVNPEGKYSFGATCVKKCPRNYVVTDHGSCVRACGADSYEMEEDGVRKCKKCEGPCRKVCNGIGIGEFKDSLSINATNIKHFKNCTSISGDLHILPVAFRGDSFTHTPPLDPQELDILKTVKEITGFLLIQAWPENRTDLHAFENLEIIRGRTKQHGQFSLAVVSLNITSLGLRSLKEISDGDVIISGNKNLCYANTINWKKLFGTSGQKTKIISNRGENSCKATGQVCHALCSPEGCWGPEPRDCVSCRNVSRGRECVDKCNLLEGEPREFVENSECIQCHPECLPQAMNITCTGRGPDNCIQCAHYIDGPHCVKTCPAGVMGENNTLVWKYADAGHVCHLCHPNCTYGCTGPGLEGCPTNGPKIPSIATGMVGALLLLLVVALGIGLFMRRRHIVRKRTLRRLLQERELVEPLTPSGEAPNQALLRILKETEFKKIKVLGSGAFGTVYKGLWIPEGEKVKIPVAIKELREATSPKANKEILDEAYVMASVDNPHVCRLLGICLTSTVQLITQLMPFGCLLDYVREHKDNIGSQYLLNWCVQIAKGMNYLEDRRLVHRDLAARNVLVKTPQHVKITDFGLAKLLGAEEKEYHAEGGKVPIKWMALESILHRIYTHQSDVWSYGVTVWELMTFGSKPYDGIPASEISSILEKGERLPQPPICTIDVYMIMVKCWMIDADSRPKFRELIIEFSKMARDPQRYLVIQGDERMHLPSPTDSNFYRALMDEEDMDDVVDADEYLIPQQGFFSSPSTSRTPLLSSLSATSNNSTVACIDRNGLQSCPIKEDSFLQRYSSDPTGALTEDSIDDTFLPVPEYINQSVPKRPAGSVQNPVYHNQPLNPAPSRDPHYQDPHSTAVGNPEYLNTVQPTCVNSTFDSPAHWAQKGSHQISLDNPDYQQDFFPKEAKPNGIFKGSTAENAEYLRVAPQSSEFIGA
Chain of EGFRΔ19del/T790M/C797S (P00533 with tags, fused parts or gaps DEL746-750/T790M/C797S, form open): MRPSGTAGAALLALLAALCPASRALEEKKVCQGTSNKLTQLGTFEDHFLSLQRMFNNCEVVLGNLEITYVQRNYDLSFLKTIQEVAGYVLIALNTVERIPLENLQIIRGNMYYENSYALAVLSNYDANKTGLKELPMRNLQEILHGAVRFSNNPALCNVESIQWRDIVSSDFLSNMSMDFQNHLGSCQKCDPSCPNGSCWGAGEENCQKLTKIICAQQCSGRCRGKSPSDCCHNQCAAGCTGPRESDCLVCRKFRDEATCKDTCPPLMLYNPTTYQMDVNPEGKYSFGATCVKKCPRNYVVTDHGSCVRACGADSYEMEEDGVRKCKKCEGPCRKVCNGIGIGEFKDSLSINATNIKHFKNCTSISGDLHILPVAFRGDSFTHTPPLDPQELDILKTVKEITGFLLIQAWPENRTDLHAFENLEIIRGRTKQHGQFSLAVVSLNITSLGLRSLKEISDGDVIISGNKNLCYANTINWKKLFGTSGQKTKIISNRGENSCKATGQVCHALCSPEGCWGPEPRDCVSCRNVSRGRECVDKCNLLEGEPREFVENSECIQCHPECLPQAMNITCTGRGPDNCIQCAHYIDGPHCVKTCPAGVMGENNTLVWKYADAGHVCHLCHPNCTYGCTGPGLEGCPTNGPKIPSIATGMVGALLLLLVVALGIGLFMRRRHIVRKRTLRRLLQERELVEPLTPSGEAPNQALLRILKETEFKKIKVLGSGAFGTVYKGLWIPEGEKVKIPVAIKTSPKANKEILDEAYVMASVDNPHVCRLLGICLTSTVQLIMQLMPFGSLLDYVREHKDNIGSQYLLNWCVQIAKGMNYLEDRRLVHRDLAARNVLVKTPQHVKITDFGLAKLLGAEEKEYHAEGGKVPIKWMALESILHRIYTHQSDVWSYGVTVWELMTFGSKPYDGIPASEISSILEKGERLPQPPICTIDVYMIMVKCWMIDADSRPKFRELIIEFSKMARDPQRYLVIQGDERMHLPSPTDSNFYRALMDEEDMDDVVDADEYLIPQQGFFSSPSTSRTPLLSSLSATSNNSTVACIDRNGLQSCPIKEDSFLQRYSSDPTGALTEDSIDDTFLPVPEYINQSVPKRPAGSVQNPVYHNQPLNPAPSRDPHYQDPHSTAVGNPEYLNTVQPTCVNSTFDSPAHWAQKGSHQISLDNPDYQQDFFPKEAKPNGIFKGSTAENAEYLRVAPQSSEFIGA

| Compound | IC50 (EGFR WT) [nM] | GI50 [1] [nM] | IC50 (IGF1R) [nM] | IC50 (EGFRΔ19del/T790M/C797S) [nM] | IC50 (A431; Homo sapiens, A-431, 72 h) [nM] | GI50 [2] [nM] | IC50 (A431) [nM] |
| --- | --- | --- | --- | --- | --- | --- | --- |
| CCc1cc(Nc2ncc(Br)c(Nc3ccc(-c4cnn(C)n4)cc3P(C)(C)=O)n2)c(OC)cc1N1CCC(N2CCN(C)CC2)CC1 [Compound 8, (2-((5-Bromo-2-((5-ethyl-2-methoxy-4-(4(4-methylpiperazin-1-yl)piperidin-1-yl)phenyl)amino)pyrimidin-4-yl)amino)-5-(2-methyl-2H-1,2,3-triazol-4-yl)phenyl)dimethylphosphine oxide] | 10.8 | 3.3 | 67.9 | 0.4 | 773 | 181 |  |
| CCc1cc(Nc2ncc(Cl)c(Nc3ccc(-c4ncc(OC)cn4)cc3P(C)(C)=O)n2)c(OC)cc1N1CCC(N2CCN(C)CC2)CC1 [Compound 20, (2-((5-Chloro-2-((5-ethyl-2-methoxy-4-(4-(4-methylpiperazin-1-yl)piperidin-1-yl)phenyl)amino)pyrimidin-4-yl)amino)-5-(5-methoxypyrimidin-2-yl)phenyl)dimethylphosphine oxide] | 19 | 11.8 | 120 | 0.5 | 1470 | 365 |  |
| CCc1cc(Nc2ncc(Br)c(Nc3ccc(-c4ncccn4)cc3P(C)(C)=O)n2)c(OC)cc1N1CCC(N2CCN(C)CC2)CC1 [Compound 26, (2-((5-Bromo-2-((5-ethyl-2-methoxy-4-(4-(4-methylpiperazin-1-yl)piperidin-1-yl)phenyl)amino)pyrimidin-4-yl)amino)-5-(pyrimidin-2-yl)phenyl)dimethylphosphine oxide] | 18.9 | 5.1 | 102 | 0.4 | 1030 | 162 |  |
| CCc1cc(Nc2ncc(Br)c(Nc3ccc(-c4ncco4)cc3P(C)(C)=O)n2)c(OC)cc1N1CCC(N2CCN(C)CC2)CC1 [Compound 27] | 15.6 | 7.5 | 72 | 0.3 | 871 | 159 |  |
| CCc1cc(Nc2ncc(Br)c(Nc3ccc(-c4cscn4)cc3P(C)(C)=O)n2)c(OC)cc1N1CCC(N2CCN(C)CC2)CC1 [Compound 28, (2-((5-Bromo-2-((5-ethyl-2-methoxy-4-(4-(4-methylpiperazin-1-yl)piperidin-1-yl)phenyl)amino)pyrimidin-4-yl)amino)-5-(thiazol-4-yl)phenyl)dimethylphosphine oxide] | 12 | 9.9 | 61 | 0.2 | 778 | 171 |  |
| CCc1cc(Nc2ncc(Br)c(Nc3ccc(-c4ncc(F)cn4)cc3P(C)(C)=O)n2)c(OC)cc1N1CCC(N2CCN(C)CC2)CC1 [Compound 29, (2-((5-Bromo-2-((5-ethyl-2-methoxy-4-(4-(4-methylpiperazin-1-yl)piperidin-1-yl)phenyl)amino)pyrimidin-4-yl)amino)-5-(5-fluoropyrimidin-2-yl)phenyl)dimethylphosphine oxide] | 16 | 13.4 | 80 | 0.2 | 2660 | 194 |  |
| CCc1cc(Nc2ncc(Br)c(Nc3ccc(-c4ncn(C)n4)cc3P(C)(C)=O)n2)c(OC)cc1N1CCC(N2CCN(C)CC2)CC1 [Compound 31, (2-((5-Bromo-2-((5-ethyl-2-methoxy-4-(4-(4-methylpiperazin-1-yl)piperidin-1-yl)phenyl)amino)pyrimidin-4-yl)amino)-5-(1-methyl-1H-1,2,4-triazol-3-yl)phenyl)dimethylphosphine oxide] | 27.6 | 20.8 | 179 | 0.3 | 1030 | 559 |  |
| CCc1cc(Nc2ncc(Cl)c(Nc3ccc(-c4cnccn4)cc3P(C)(C)=O)n2)c(OC)cc1N1CCC(N2CCN(C)CC2)CC1 [Compound 32, (2-((5-Chloro-2-((5-ethyl-2-methoxy-4-(4-(4-methylpiperazin-1-yl)piperidin-1-yl)phenyl)amino)pyrimidin-4-yl)amino)-5-(pyrazin-2-yl)phenyl)dimethylphosphine oxide] | 19.3 | 17.8 | 184 | 0.4 | 749 | 196 |  |
| CCc1cc(Nc2ncc(Br)c(Nc3ccc(-c4ccc(C)nn4)cc3P(C)(C)=O)n2)c(OC)cc1N1CCC(N2CCN(C)CC2)CC1 [Compound 33, (2-((5-Bromo-2-((5-ethyl-2-methoxy-4-(4-(4-methylpiperazin-1-yl)piperidin-1-yl)phenyl)amino)pyrimidin-4-yl)amino)-5-(6-methylpyridazin-3-yl)phenyl)dimethylphosphine oxide] | 27.3 | 13.5 | 177 | 0.3 | 962 | 437 |  |
| CCc1cc(Nc2ncc(Br)c(Nc3ccc(-c4cnc(OC)nc4)cc3P(C)(C)=O)n2)c(OC)cc1N1CCC(N2CCN(C)CC2)CC1 [Compound 34, (2-((5-Bromo-2-((5-ethyl-2-methoxy-4-(4-(4-methylpiperazin-1-yl)piperidin-1-yl)phenyl)amino)pyrimidin-4-yl)amino)-5-(2-methoxypyrimidin-5-yl)phenyl)dimethylphosphine oxide] | 29.7 | 5.8 | 91.1 | 0.2 | 5150 | 180 |  |
| CCc1cc(Nc2ncc(Br)c(Nc3ccc(-c4cnc(N(C)C)cn4)cc3P(C)(C)=O)n2)c(OC)cc1N1CCC(N2CCN(C)CC2)CC1 [Compound 35, (2-((5-Bromo-2-((5-ethyl-2-methoxy-4-(4-(4-methylpiperazin-1-yl)piperidin-1-yl)phenyl)amino)pyrimidin-4-yl)amino)-5-(5-(dimethylamino)pyrazin-2-yl)phenyl)dimethylphosphine oxide] | 21.5 | 3.1 | 238 | 0.5 | > 10000 | 259 |  |
| CCc1cc(Nc2ncc(Br)c(Nc3ccc(-n4cc(F)cn4)cc3P(C)(C)=O)n2)c(OC)cc1N1CCC(N2CCN(C)CC2)CC1 [Compound 44, (2-((5-Bromo-2-((5-ethyl-2-methoxy-4-(4-(4-methylpiperazin-1-yl)piperidin-1-yl)phenyl)amino)pyrimidin-4-yl)amino)-5-(4-fluoro-1H-pyrazol-1-yl)phenyl)dimethylphosphine oxide] | 11.5 | 9.5 | 124 | 0.2 | 2380 | 166 |  |
| CCc1cc(Nc2ncc(Br)c(Nc3ccc(-c4cnc5c(ccn5C)c4)cc3P(C)(C)=O)n2)c(OC)cc1N1CCC(N2CCN(C)CC2)CC1 [Compound 55] | 36.4 | 35 | 497 | 1.5 | 2960 | 1070 |  |
| CCc1cc(Nc2ncc(Br)c(Nc3ccc(-c4cncc(OC)n4)cc3P(C)(C)=O)n2)c(OC)cc1N1CCC(N2CCN(C)CC2)CC1 [Compound 59, (2-((5-Bromo-2-((5-ethyl-2-methoxy-4-(4-(4-methylpiperazin-1-yl)piperidin-1-yl)phenyl)amino)pyrimidin-4-yl)amino)-5-(6-methoxypyrazin-2-yl)phenyl)dimethylphosphine oxide] | 41 | 26.3 | 395 | 1.3 |  | 1290 | 2300 |
| CCc1cnc(-c2ccc(Nc3nc(Nc4cc(CC)c(N5CCC(N6CCN(C)CC6)CC5)cc4OC)ncc3Br)c(P(C)(C)=O)c2)nc1 [Compound 70] | 38.6 | 9 | 246 | 0.9 | 6290 | 407 |  |
| CCOc1cnc(-c2ccc(Nc3nc(Nc4cc(CC)c(N5CCC(N6CCN(C)CC6)CC5)cc4OC)ncc3Br)c(P(C)(C)=O)c2)nc1 [Compound 75] | 16 | 16.8 | 91 | 0.5 | > 10000 | 1010 |  |
